In patent US8529889B2, “Methods and compositions related to the modulation of intercellular junctions” (Massachusetts Institute of Technology, priority 2004, dated 2013):
Entries after “also recorded” stand apart in the source; their conditions may differ.

B1: heparinase III (protein, UniProt Q59289 25-659, looked up)
Heparin-sulfate lyase: QSSSITRKDFDHINLEYSGLEKVNKAVAAGNYDDAAKALLAYYREKSKAREPDFSNAEKPADIRQPIDKVTREMADKALVHQFQPHKGYGYFDYGKDINWQMWPVKDNEVRWQLHRVKWWQAMALVYHATGDEKYAREWVYQYSDWARKNPLGLSQDNDKFVWRPLEVSDRVQSLPPTFSLFVNSPAFTPAFLMEFLNSYHQQADYLSTHYAEQGNHRLFEAQRNLFAGVSFPEFKDSPRWRQTGISVLNTEIKKQVYADGMQFELSPIYHVAAIDIFLKAYGSAKRVNLEKEFPQSYVQTVENMIMALISISLPDYNTPMFGDSWITDKNFRMAQFASWARVFPANQAIKYFATDGKQGKAPNFLSKALSNAGFYTFRSGWDKNATVMVLKASPPGEFHAQPDNGTFELFIKGRNFTPDAGVFVYSGDEAIMKLRNWYRQTRIHSTLTLDNQNMVITKARQNKWETGNNLDVLTYTNPSYPNLDHQRSVLFINKKYFLVIDRAIGEATGNLGVHWQLKEDSNPVFDKTKNRVYTTYRDGNNLMIQSLNADRTSLNEEEGKVSYVYNKELKRPAFVFEKPKKNAGTQNFVSIVYPYDGQKAPEISIRENKGNDFEKGKLNLTLTINGKQQLVLVP
notes: Glycosaminoglycan-degrading enzyme; cleaves the less/unsulfated, heparan sulfate-like regions
B2: heparinase I (protein, UniProt Q05819 22-384, looked up)
Heparin lyase I: QQKKSGNIPYRVNVQADSAKQKAIIDNKWVAVGINKPYALQYDDKLRFNGKPSYRFELKAEDNSLEGYAAGETKGRTELSYSYATTNDFKKFPPSVYQNAQKLKTVYHYGKGICEQGSSRSYTFSVYIPSSFPDNATTIFAQWHGAPSRTLVATPEGEIKTLSIEEFLALYDRMIFKKNIAHDKVEKKDKDGKITYVAGKPNGWKVEQGGYPTLAFGFSKGYFYIKANSDRQWLTDKADRNNANPENSEVMKPYSSEYKTSTIAYKMPFAQFPKDCWITFDVAIDWTKYGKEANTILKPGKLDVMMTYTKNKKPQKAHIVNQQEILIGRNDDDGYYFKFGIYRVGNSTVPVTYNLSGYSETAR
notes: Glycosaminoglycan-degrading enzyme; cleaves HSGAGs at the more sulfated, heparin-like regions

Columns and labels:
[1] = test system: calu-3 human lung adenocarcinoma epithelial cells; experiment: Tight junction (ZO-1) and actin filament disruption by immunofluorescence and confocal microscopy, calu-3; assay type: cell-based; conditions: calu-3 cells
Method: (§1) Heparinase III (hep III) was made as described previously (Godavarti R et al., 1996); heparinase I (hep I) was a generous gift from Momenta pharmaceuticals (Cambridge, Mass.); chondroitinase ABC (C-ABC) lyase was purchased from Seikagaku (East Falmouth, Mass.). Hep III was added to the apical side of the cells at a concentration of 10 μg/mL; hep I was added at a concentration of 6 μg/mL, and C-ABC was added at 50 μU/mL. The concentration of ethylene glycol tetra acetic acid (EGTA) (Sigma) used was 5 mM. All the enzymes and the EGTA were made up in serum free Eagle's Minimal Essential medium with 2 mM L-glutamine. Heparin solution was made up to a concentration of 15 mM in serum free media and added to the apical side of the cells after removing the cell medium. Ardeparin sodium and ardeparin calcium powder were added to cells at 6 mg/well, and ardeparin solution was made up to a final concentration of 18 mM.
(§2) Cells grown on glass coverslips were fixed with 10% buffered formalin for 10 min. Cells were then permeabilized with 0.5% Triton-100 (Sigma) in Tris Buffer Saline with 1% Tween-20 (TBST) for 15 min. at room temperature. Nonspecific antibody binding was blocked with 0.1% bovine serum albumin (BSA) for 30 min. at room temperature. The cells were incubated with primary antibody at room temperature for 4 hours and washed 3 times with PBS. The cells were then incubated in the appropriate secondary antibody for 1 hour in the dark at room temperature and washed 3 times with PBS.
Calu-3 cells were seeded on gelatin coated coverslips and were allowed to grow for about 4 to 5 days to about 80% confluency. UFH powder was added to the apical side of the cells using an insufflator to ensure homogenous distribution of the powder on the coverslip.

[2] = test system: 16HBE14O-human virally transformed bronchial epithelial cells; experiment: Tight junction (ZO-1) disruption by immunofluorescence and confocal microscopy, 16HBE14O-; assay type: cell-based; conditions: 16HBE14O- cells; for disruption of ZO-1 / tight junctions (epithelial permeability): hep III 10 μg/mL, hep I 6 μg/mL, C-ABC 50 μU/mL, EGTA 5 mM, 20 min. at 37° C.
Method: as §1, §2
16HBE14O-cells were grown to confluency on fibronectin coated coverslips for 4 to 5 days after seeding. The cells were then incubated with hep III, hep I, C-ABC and EGTA made up to the final concentration described above for 20 min. at 37° C. Using the primary rabbit anti-ZO-1 antibody and the secondary goat anti-rabbit Texas Red antibody, the cells were analyzed by the immunofluorescence and confocal microscopy technique discussed above. […] Localization of the tight junction protein in untreated cells is also shown as a control.

[3] = test system: MCF-7 (human mammary cancer) cells; experiment: Tight junction disruption in MCF-7 cells; assay type: cell-based
Method: as §1, §2

[4] = test system: caco-2 (human colon adenocarcinoma) cells; experiment: Tight junction disruption in caco-2 cells; assay type: cell-based
Method: as §1, §2

syndecan-4 = experiment: Syndecan-4 ectodomain shedding, dot immunoassay, 16HBE14O- cells; assay type: cell-based, human; conditions: hep III 10 μg/mL, hep I 6 μg/mL, C-ABC 50 μU/mL
Method: as §1
(§3) Specificity and quantification of the dot immunoassay for shed syndecan-1 and -4 ectodomains has been previously described in detail (Subramanian et al., 1997). In brief, the conditioned media were diluted in buffer A (0.15 M NaCl buffered to pH 4.5 with 50 mM sodium acetate and with 0.1% Triton X-100) and applied to catonic polyvinylidine diflouride-based membranes (Immobilin-N) (Millipore, Bedford, Mass.) under mild vacuum in an immunodot apparatus (V&P Scientific, San Diego, Calif.). […]
(§4) Detection was by the ECL system (Amersham) as described by the manufacturer. Results were quantified by scanning the exposed membrane with a Kodak Image Station.
(§5) 16HBE14O-cells were grown to about 80% confluency in 6 well plates. […] To evaluate the changes in cell number, the cells were trypsinized and counted with a coulter-counter after incubation. […] The membranes were then incubated in mouse anti-syndecan-1 and in the appropriate secondary antibody and were developed and analyzed as described above. […]

syndecan-1 = experiment: Syndecan-1 ectodomain shedding, dot immunoassay, 16HBE14O- cells; assay type: cell-based, human; conditions: hep III 10 μg/mL, hep I 6 μg/mL, C-ABC 50 μU/mL
Method: as §1, §3, §4, §5

| Molecule | disruption of ZO-1 / tight junctions (epithelial permeability) [1] | time for cell line to recover from the effect of the treatment [1] | time for cell line to recover from the effect of the treatment [2] | disruption of ZO-1 / tight junctions (epithelial permeability) [2] | tight junction disruption (epithelial permeability) [3] | time for cell line to recover from the effect of the treatment [3] | tight junction disruption (epithelial permeability) [4] | time for cell line to recover from the effect of the treatment [4] | disruption of ZO-1 / tight junctions (epithelial permeability) ([2]; listed as C-ABC) | syndecan-4 ectodomain shedding (syndecan-4) | syndecan-1 ectodomain shedding (syndecan-1) | disruption of ZO-1 / tight junctions (epithelial permeability) ([2]; listed as hep III) | disruption of ZO-1 / tight junctions (epithelial permeability) ([2]; listed as hep I) |
| --- | --- | --- | --- | --- | --- | --- | --- | --- | --- | --- | --- | --- | --- |
| O=C(O)CN(CCOCCOCCN(CC(=O)O)CC(=O)O)CC(=O)O [EGTA, ethylene glycol tetra acetic acid, reference compound] | caused a disruption of the junctional complex | about 8 hours | about 8 hours | caused a disruption of the junctional complex; also recorded: cause different amounts of disruption of the tight junctions | caused a disruption of the junctional complex | about 8 hours | caused a disruption of the junctional complex | about 8 hours |  |  |  |  |  |
| chondroitinase ABC [cABC] | more effect than Hep I |  |  | more pronounced effect than Hep III | Hep III had more effect on tight junction disruption than cABC and Hep I |  | Hep III had more effect on tight junction disruption than cABC and Hep I |  | cause different amounts of disruption of the tight junctions | did not cause an increase in syndecan-4 ectodomain shedding | causes syndecan-1 ectodomain shedding |  |  |
| B1 | more effect than Hep I |  |  | Hep I and cABC had more pronounced effect than Hep III | more effect on tight junction disruption than cABC and Hep I |  | more effect on tight junction disruption than cABC and Hep I |  |  | did not cause an increase in syndecan-4 ectodomain shedding | causes syndecan-1 ectodomain shedding | cause different amounts of disruption of the tight junctions |  |
| B2 | Hep III and cABC had more effect than Hep I |  |  | more pronounced effect than Hep III | Hep III had more effect on tight junction disruption than cABC and Hep I |  | Hep III had more effect on tight junction disruption than cABC and Hep I |  |  | did not cause an increase in syndecan-4 ectodomain shedding | causes syndecan-1 ectodomain shedding |  | cause different amounts of disruption of the tight junctions |
